Patent US8575338B2, “Pyrimidine, pyridine and triazine derivatives as maxi-K channel openers” (Mitsubishi Tanabe Pharma Corporation, priority 2008, dated 2013)

Biological target: T1, human BKαβ1 channels (Homo sapiens, UniProt Q12791)
T1 construct: expressed in transfected cells; host or cells: CHO cells (G418 and hygromycin selection)
Assay: BK current in CHO cells expressing human BKαβ1 (PatchXpress whole-cell patch clamp), EC100
Assay type: cell-based
Settings: drug concentration causing 100% increase of BK current
Procedure: Methods for Testing Compounds on Human BKαβ1 Channels Expressed Cho Cells
CHO cells expressing human BKαβ1 were cultured in T75 or 6 well cell culture cluster. Medium: DMEM/F12+10% FBS+0.5 mg/mL G418/genetecin+0.1 mg/mL Hygromycin. Split cells every 3-4 days at 80-90% confluence. Use cells for experiments 60-72 hrs after re-passage and at ˜90% confluence.
Trypsin solution (0.05% Trypsin+0.1% EDTA), Ca^2+ free PBS and culture medium were warmed to 37° C. Inspect the T75 flask for cell confluence. Remove culture medium and add warm Ca^2+ free PBS to wash cells. Remove Ca^2+ free PBS and add warm Trypsin solution. Put the T75 flask back to 37° C. incubator for about 4.5 minutes. Stop Trypsin activity by adding culture medium. Spin the cells down. Suspend cells in 120-160 μL external solution for BK current recording and use the cells as soon as possible.
PatchXpress Sealchip 16 electrodes (AVIVA Biosciences) and PatchXpress 7000A (Axon Instruments, Inc) were used for BK current recording. Flat bottom 1.5 mL glass vial (HiPep Laboratories) were used for containing external solutions (±compounds). The holes in the sealchip (equivalent to patch electrode) had resistance about 1.5 MΩ. Cell membrane capacitance was compensated and access resistance was also compensated by 40%. Voltage-clamp protocol: Holding voltage=0 mV. Record BK current during 200-ms steps between +80 to +120 mV in 10 mV increments and 2 sec inter-pulse interval. On-line digital leak subtraction was performed by a P/−4 procedure. After whole-cell configuration was established, 2 minute was used to optimize access resistance. Then the chamber was washed with control bath solution for 1 minute to remove excessive cells. Control bath solution was added with robotic pipette and control BK current was recorded after 1 minute equilibrium time. For each drug concentration, 45 μL drug solution was added three times with “suction before adding” mode which left old solution. For each drug addition, 1 minute equilibrium time was given. BK current was measured at each drug concentrations (usually within 3.5 minutes after first drug addition). Calculate % change of BK current at the voltage step when the control BK current first exceeding 200 pA. If the control BK current was less than 200 pA at 120 mV, the cell was not used. % changes were calculated as 100*(Id−Ic)/Ic, where Id was the current amplitude in the presence of drug and Ic was the control current amplitude.
EC100 was defined as the drug concentration causing 100% increase of BK current calculated by the method described above. EC100 was determined by the data points just below and above 100%. % Increase of BK current was plotted against log [drug concentration]. A straight line connected two data points flanking 100%. From this straight line, the concentration corresponding to 100% increase of BK current was determined as EC100.
Compounds were dissolved in DMSO to make 10 mM stock solutions. Subsequent dilutions were made with external solution. The testing drug concentrations were 0.1, 0.3, 1, 3 and 10 μM depending on the potency of compounds. The highest DMSO concentration was 0.1%. External solution (in mM): 140 NaCl, 4 KCl, 1 MgCl2, 2 CaCl2, 10 Glucose, 10 HEPES; pH=7.4 with NaOH. Internal solution (in mM): 140 KCl, 5 EGTA, 1 MgCl2, 5 MgATP, 0.2 CaCl2, 5 HEPES; pH=7.2 with KOH.

T1 sequence (Q12791 whole entry): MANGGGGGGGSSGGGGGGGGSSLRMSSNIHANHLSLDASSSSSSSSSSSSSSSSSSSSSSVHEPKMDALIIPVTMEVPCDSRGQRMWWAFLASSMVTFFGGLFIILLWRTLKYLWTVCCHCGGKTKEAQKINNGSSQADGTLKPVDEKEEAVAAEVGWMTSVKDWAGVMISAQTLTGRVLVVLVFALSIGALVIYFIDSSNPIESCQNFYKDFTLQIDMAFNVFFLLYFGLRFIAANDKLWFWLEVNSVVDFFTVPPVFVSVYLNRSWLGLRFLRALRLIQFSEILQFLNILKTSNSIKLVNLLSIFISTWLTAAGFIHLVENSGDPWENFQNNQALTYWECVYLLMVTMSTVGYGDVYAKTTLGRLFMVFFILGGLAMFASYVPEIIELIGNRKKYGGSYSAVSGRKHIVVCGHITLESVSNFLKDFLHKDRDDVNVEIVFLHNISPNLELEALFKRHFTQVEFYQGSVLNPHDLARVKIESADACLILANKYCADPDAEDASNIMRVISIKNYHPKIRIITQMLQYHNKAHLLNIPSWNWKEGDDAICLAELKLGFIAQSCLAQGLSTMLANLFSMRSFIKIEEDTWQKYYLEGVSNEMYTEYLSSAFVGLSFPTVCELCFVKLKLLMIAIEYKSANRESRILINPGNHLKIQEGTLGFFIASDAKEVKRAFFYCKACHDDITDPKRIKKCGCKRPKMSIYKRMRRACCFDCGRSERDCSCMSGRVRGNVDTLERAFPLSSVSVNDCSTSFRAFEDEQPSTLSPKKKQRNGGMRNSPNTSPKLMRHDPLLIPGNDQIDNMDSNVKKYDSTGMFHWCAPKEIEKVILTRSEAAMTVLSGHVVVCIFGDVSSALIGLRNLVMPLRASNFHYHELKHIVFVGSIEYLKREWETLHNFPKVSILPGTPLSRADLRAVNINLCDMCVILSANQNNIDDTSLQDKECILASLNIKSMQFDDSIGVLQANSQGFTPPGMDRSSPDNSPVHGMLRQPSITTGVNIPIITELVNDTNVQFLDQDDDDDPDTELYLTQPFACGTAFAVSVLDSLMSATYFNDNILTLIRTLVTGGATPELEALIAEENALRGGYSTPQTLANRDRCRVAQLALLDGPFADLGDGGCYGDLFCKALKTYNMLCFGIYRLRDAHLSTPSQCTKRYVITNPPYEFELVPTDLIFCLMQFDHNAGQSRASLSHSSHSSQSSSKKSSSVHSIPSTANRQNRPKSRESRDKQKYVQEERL
T1 sequence (Q16558 whole entry partner): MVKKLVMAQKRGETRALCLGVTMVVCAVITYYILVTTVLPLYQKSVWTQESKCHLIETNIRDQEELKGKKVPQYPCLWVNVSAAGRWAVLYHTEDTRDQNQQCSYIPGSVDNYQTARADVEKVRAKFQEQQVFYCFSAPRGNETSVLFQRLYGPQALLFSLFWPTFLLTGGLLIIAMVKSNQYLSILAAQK

| EC100 [µM] | Structure (SMILES) |
| --- | --- |
| 1.91 | CC(C)(Oc1cc(N2CCC(C(C)(C)O)CC2)nc(-c2ccc(Cl)c(F)c2)n1)C(=O)[O-].[Na+] [Example 16] |
| 1.75 | CCC(CC)(Oc1cc(N2CCC(OC)CC2)nc(-c2ccc(Cl)c(F)c2)n1)C(=O)[O-].[Na+] [Example 33] |
| 0.59 | COC[C@@H]1CCCN1c1cc(OC2(C(=O)[O-])CC2)nc(-c2ccc(Cl)c(F)c2)n1.[Na+] [Example 36] |
| 0.69 | COC[C@H]1CCCN1c1cc(OC2(C(=O)[O-])CC2)nc(-c2ccc(Cl)c(F)c2)n1.[Na+] [Example 37] |
| 0.25 | COCC1CCN(c2cc(OC3(C(=O)[O-])CC3)nc(-c3ccc(Cl)c(F)c3)n2)CC1.[Na+] [Example 39] |
| 0.33 | O=C([O-])C1(Oc2cc(NC3CCCC3)nc(-c3ccc(Cl)c(F)c3)n2)CC1.[Na+] [Example 47] |
| 1.05 | CCO[C@H]1CCCN(c2cc(OC3(C(=O)[O-])CC3)nc(-c3ccc(Cl)c(F)c3)n2)C1.[Na+] [Example 50] |
| 1.09 | CCOC1CCN(c2cc(OC3(C(=O)[O-])CC3)nc(-c3ccc(Cl)c(F)c3)n2)C1.[Na+] (centres unmarked) [Example 51] |
| 1.31 | COC[C@@H]1CCCN1c1cc(OC2(C(=O)[O-])CCCC2)nc(-c2ccc(Cl)c(F)c2)n1.[Na+] [Example 54] |
| 0.36 | CC(C)(Oc1cc(-c2ccc(F)cc2)nc(-c2ccc(Cl)c(F)c2)n1)C(=O)[O-].[Na+] [Example 474] |
| 1.83 | COCc1ccc(-c2cc(OC(C)(C)C(=O)[O-])nc(-c3ccc(Cl)c(F)c3)n2)cc1.[Na+] [Example 485] |
| 1.38 | COc1nc(-c2cc(OC(C)(C)C(=O)[O-])nc(-c3ccc(Cl)c(F)c3)n2)cs1.[Na+] [Example 506] |
| 0.14 | O=C([O-])C1(Oc2cc(-c3ccc(F)cc3)nc(-c3ccc(Cl)c(F)c3)n2)CC1.[Na+] [Example 512] |
| 0.1 | COc1ccc(-c2cc(OC3(C(=O)[O-])CC3)nc(-c3ccc(Cl)c(F)c3)n2)cc1F.[Na+] [Example 518] |
| 0.12 | COc1cc(F)cc(-c2cc(OC3(C(=O)[O-])CC3)nc(-c3ccc(Cl)c(F)c3)n2)c1.[Na+] [Example 519] |
| 0.32 | COc1ccc(F)cc1-c1cc(OC2(C(=O)[O-])CC2)nc(-c2ccc(Cl)c(F)c2)n1.[Na+] [Example 520] |
| 0.39 | COc1cc(-c2cc(OC3(C(=O)[O-])CC3)nc(-c3ccc(Cl)c(F)c3)n2)ccc1F.[Na+] [Example 522] |
| 0.36 | COCc1cccc(-c2cc(OC3(C(=O)[O-])CC3)nc(-c3ccc(Cl)c(F)c3)n2)c1.[Na+] [Example 526] |
| 0.12 | O=C([O-])C1(Oc2cc(-c3ccc4c(c3)OCCO4)nc(-c3ccc(Cl)c(F)c3)n2)CC1.[Na+] [Example 529] |

| EC100 [µM] | Structure (SMILES) |
| --- | --- |
| 0.5 | CCOc1ncccc1-c1cc(OC2(C(=O)[O-])CC2)nc(-c2ccc(Cl)c(F)c2)n1.[Na+] [Example 533] |
| 0.29 | N#Cc1cccc(-c2cc(OC3(C(=O)[O-])CC3)nc(-c3ccc(Cl)c(F)c3)n2)c1.[Na+] [Example 548] |
| 0.33 | N#Cc1ccc(-c2cc(OC3(C(=O)[O-])CC3)nc(-c3ccc(Cl)c(F)c3)n2)cc1.[Na+] [Example 549] |
| 0.2 | O=C([O-])C1(Oc2cc(-c3ccccc3O)nc(-c3ccc(Cl)c(F)c3)n2)CC1.[Na+] [Example 552] |
| 0.1 | CCOc1cccc(-c2cc(OC3(C(=O)[O-])CC3)nc(-c3ccc(Cl)c(F)c3)n2)c1.[Na+] [Example 553] |
| 0.3 | O=C([O-])C1(Oc2cc(-c3cccc(C(F)(F)F)c3)nc(-c3ccc(Cl)c(F)c3)n2)CC1.[Na+] [Example 555] |
| 0.03 | O=C([O-])C1(Oc2cc(-c3cccc(C(F)(F)F)c3)nc(-c3ccc(Cl)c(F)c3)n2)CC1.[Na+] [Example 556] |
| 0.04 | O=C([O-])C1(Oc2cc(-c3ccc(F)cc3O)nc(-c3ccc(Cl)c(F)c3)n2)CC1.[Na+] [Example 558] |
| 0.36 | O=C([O-])C1(Oc2cc(-c3nccs3)nc(-c3ccc(Cl)c(F)c3)n2)CC1.[Na+] [Example 559] |
| 0.01 | O=C([O-])C1(Oc2cc(-c3cncc(Cl)c3)nc(-c3ccc(Cl)c(F)c3)n2)CC1.[Na+] [Example 563] |
| 0.56 | COc1ncccc1-c1cc(OC2(C(=O)[O-])CCCC2)nc(-c2ccc(Cl)c(F)c2)n1.[Na+] [Example 566] |
| 2.15 | O=C([O-])C1(Oc2cc(-c3nccs3)nc(-c3ccc(Cl)c(F)c3)n2)CCCC1.[Na+] [Example 570] |
| 1.07 | COc1ccc(F)c(-c2cc(OC3(C(=O)[O-])CCOCC3)nc(-c3ccc(Cl)c(F)c3)n2)c1.[Na+] [Example 572] |
| 0.05 | COc1cc(F)cc(-c2cc(OC3(C(=O)[O-])CCOCC3)nc(-c3ccc(Cl)c(F)c3)n2)c1.[Na+] [Example 573] |
| 0.12 | COc1cc(F)ccc1-c1cc(OC2(C(=O)[O-])CC2)nc(-c2cccc(F)c2)n1.[Na+] [Example 613] |
| 1.23 | COCCN(CC(=O)O)c1cc(-c2ccc(F)cc2)nc(-c2ccc(Cl)c(F)c2)n1 [Example 646] |
| 1.29 | O=C([O-])C1(Oc2cc(N3CCN(c4ncccn4)CC3)nc(-c3ccc(Cl)c(F)c3)n2)CC1.[Na+] [Example 664] |
| 0.16 | O=C(O)C1(Nc2cc(-c3ccc(F)cc3)nc(-c3ccc(Cl)c(F)c3)n2)CC1 [Example 706] |

| Structure (SMILES) | EC100 [µM] |
| --- | --- |
| COC[C@@H]1CCCN1c1nc(OC(C)(C)C(=O)[O-])nc(-c2ccc(Cl)c(F)c2)n1.[Na+] [Example 6] | 1.61 |
| COCC1CCN(c2cc(OC(C)(C)C(=O)[O-])nc(-c3ccc(Cl)c(F)c3)n2)CC1.[Na+] [Example 17] | 2.47 |
| COC[C@@H]1CCCN1c1cc(OC2(C(=O)[O-])CC2)nc(-c2cccc(C(F)(F)F)c2)n1.[Na+] [Example 62] | 1.5 |
| COC[C@@H]1CCCN1c1cc(OC2(C(=O)[O-])CC2)nc(-c2ccc(C(F)(F)F)cc2)n1.[Na+] [Example 63] | 1.28 |
| CCOc1cccc(-c2nc(OC3(C(=O)[O-])CC3)cc(N3CCC[C@H]3COC)n2)c1.[Na+] [Example 65] | 1.43 |
| COC[C@@H]1CCCN1c1cc(OC2(C(=O)[O-])CC2)nc(-c2ccc(Cl)s2)n1.[Na+] [Example 67] | 1.92 |
| COCC1CCN(c2cc(OC3(C(=O)[O-])CC3)nc(-c3ccc(Cl)s3)n2)CC1.[Na+] [Example 69] | 2.56 |
| CCCOC1CCN(c2cc(OC3(C(=O)[O-])CC3)nc(-c3ccc(F)cc3)n2)CC1.[Na+] [Example 78] | 1.41 |
| COc1ccc(C(C)=O)cc1-c1cc(OC2(C(=O)[O-])CC2)nc(-c2ccc(Cl)c(F)c2)n1.[Na+] [Example 199] | 1.14 |
| COc1cccc(-c2cc(OC(C)(C)C(=O)[O-])nc(-c3ccc(Cl)c(F)c3)c2)c1.[Na+] [Example 206] | 0.68 |
| COc1ccccc1-c1nc(OC(C)(C)C(=O)[O-])nc(-c2ccc(Cl)c(F)c2)n1.[Na+] [Example 207] | 1.91 |
| COc1cc(F)ccc1-c1cc(OC2(C(=O)[O-])CC2)nc(-c2ccc(F)c(F)c2)n1.[Na+] [Example 208] | 0.38 |
| COCCOc1cc(F)ccc1-c1cc(OC2(C(=O)[O-])CC2)nc(-c2ccc(Cl)c(F)c2)n1.[Na+] [Example 209] | 0.27 |
